Common to all, as to type: cell-based
Test [1] concerns mouse EpiSCs. As to the kind of experiment: Mouse EpiSC self-renewal culture. Conditions: for EpiSC self-renewal / maintenance of undifferentiated state: CD1 mouse EpiSCs, GMEM/10% FBS, no FGF2/activin unless named, CHIR 3 μM, PD0325901 1 μM, XAV939 2 μM, IWR-1 2.5 μM, IWP-2 2.5 μM, Pyrvinium 100 nM. From the text: We therefore reasoned that if CHIR induces EpiSC differentiation through stabilization of β-catenin, de-stabilization of β-catenin might promote EpiSC self-renewal. We tested this hypothesis by administering the tankyrase inhibitor XAV939 to mouse EpiSC cultures. XAV939-mediated inhibition of tankyrase stabilizes Axin, leading to the formation of the β-catenin destruction complex, composed of GSK3, Axin and adenomatous polyposis coli (APC) (Huang et al., 2009). […] EpiSCs cultured in CHIR/XAV could be routinely passaged by single-cell dissociation and replating onto gelatin-coated dishes, and could be cryo-preserved and recovered at high efficiency by standard techniques.
final concentrations: CHIR99021 (3 μM), PD0325901 (1 μM), XAV939 (Sigma, 2 μM), IWR-1 (Sigma, 2.5 μM), IWP-2 (Stemgent, 2.5 μM), Pyrvinium (Sigma, 100 nM), recombinant human FGF2 (PeproTech, 10 ng/ml), and recombinant human activin A (PeproTech, 10 ng/ml). CHIR99021 and PD0325901 were synthesized in the Division of Signal Transduction Therapy, University of Dundee, UK.
The basal medium for mouse EpiSC culture is the conventional mouse ESC medium, which consists of GMEM (Sigma) supplemented with 10% fetal bovine serum (FBS) (Hyclone), 2 mM L-glutamine (Invitrogen), 1 mM sodium pyruvate (Invitrogen), 1% nonessential amino acids (Invitrogen), and 0.1 mM (3-mercaptoethanol. Mouse EpiSCs were derived and maintained in the basal medium supplemented with FGF2/activin, CHIR/XAV, or CHIR/IWR-1. The basal medium for rat EpiSC culture is N2B27 (Tong et al., 2011), which was prepared by mixing 500 ml of DMEM/F12 (Invitrogen) with 500 ml of Neurobasal™ medium (Invitrogen), and adding 5 ml of N2 (Invitrogen), 10 ml of B27 (Invitrogen), 5 ml of Glutamax™ (Invitrogen), and 1 ml of 0.1 M β-mercaptoethanol (Sigma). The basal medium for human ESC culture consists of Knockout™ DMEM/F12 supplemented with 20% KSR (Invitrogen), 1% nonessential amino acids, 2 mM L-glutamine, and 0.1 mM (3-mercaptoethanol. Human ESCs were cultured in the basal medium supplemented with FGF2, CHIR/XAV, or CHIR/IWR-1.
Post-implantation epiblasts were isolated from mouse or rat embryos and dissociated into small clumps as previously described (Chenoweth and Tesar, 2010). Epiblast fragments were placed into 4-well plates pre-coated with 0.1% gelatin (for mouse epiblasts) or pre-seeded with γ-irradiated mouse embryonic fibroblasts (MEFs) (for rat epiblasts) and cultured in either the FGF2/activin or the CHIR/XAV conditions. Emerging EpiSCs were trypsinized and expanded every 2-3 days at a subculture ratio of 1:4. Animal experiments were performed according to the investigator's protocols approved by the University of Southern California Institutional Animal Care and Use Committee.

Test [2] has as its system β-catenin/TCF-responsive TOPFlash reporter. Description: TOPFlash reporter assay in H9 human ESCs. The conditions noted are these: 24 h, added to CHIR. On the procedure:
(A) TOPFlash™ assay in H9 human ESCs subjected to the indicated treatments for 24 h. Data represent mean±s.d. of three biological replicates. (B) Representative phase contrast and alkaline phosphatase (AP) staining images of H9 human ESCs cultured in the indicated conditions for 3 passages. (C) Phase contrast images of H9 human ESCs cultured in CHIR/XAV or CHIR/IWR-1 for 11 passages. (D) Colony forming efficiency assay of H9 human ESCs cultured in FGF2 or CHIR/IWR-1 conditions. Data represent mean±s.d. of three biological replicates. Right panel: a representative image showing AP staining of colonies formed from H9 human ESCs cultured in either FGF2 or CHIR/IWR-1 condition. (E) Human ESCs cultured in CHIR/IWR-1 for 11 passages were immunostained with the indicated antibodies. (F) Embryoid bodies (EBs) were generated from H9 human ESCs cultured in CHIR/IWR-1 for 11 passages. The outgrowths of EBs were immunostained with the indicated antibodies. (G) H&E staining of teratomas generated from H9 ESCs cultured in CHIR/IWR-1 for 20 passages. (H) Western blot analysis of Axin1 and Axin2 expression in HES3 human ESCs treated with the indicated cytokines/inhibitors for 24 h. (I) Immunofluorescence images of H9 human ESCs (passage 5 in CHIR) overexpressing Flag-tagged Axin2. (J) Representative phase contrast and immunofluorescence images of HES2 human ESCs overexpressing ΔNβ-catenin-ERT2 at passage 5 in basal medium only. These cells were cultured in basal medium only for more than 10 passages and remained morphologically undifferentiated. (K) Phase contrast images of HES2 human ESCs overexpressing ΔNβ-catenin (left panel, passage 2 in basal medium/FGF2) or ΔNβ-catenin/A295W/I296W mutant (right panel, passage 5 in basal medium only). Scale bars, 50 μm (B, C, E-G, and I-K). (L) Model of mouse EpiSC and human ESC self-renewal mediated by β-catenin. In the absence of Wnt or GSK3 inhibitor, a β-catenin destruction complex, containing Axin1, GSK3, and APC is formed, leading to the degradation of β-catenin and differentiation (left). In the presence of Wnt or GSK3 inhibitor, β-catenin is stabilized and can initiate cellular responses related to both self-renewal and differentiation. Stabilized β-catenin induces differentiation when it translocates into the nucleus and binds TCFs to activate downstream targets (middle). Addition of XAV or IWR-1 stabilizes Axin2. […]
(§1) For quantifying relative Oct3/4 enhancer activities, pGL3-Oct4 DE and pGL3-Oct4 PE plasmids (gifts from Hans Schöler's lab) were co-transfected with the Renilla vector, using the Amaxa™ Transfection Kit (Lonza). […] For quantifying relative β-catenin/Tcf transcriptional activity, pGL2-SuperTOP™ plasmid (gift from Randall Moon) was co-transfected with the Renilla vector and assayed accordingly.

Test [3] has the same test system. As to the kind of experiment: TOPFlash reporter assay in mouse EpiSCs. The conditions noted are these: CD1 mouse EpiSCs, 12 hours, added to CHIR. On the procedure: (§2) (A) TOPFlash™ assay in CD1 mouse EpiSCs treated with the indicated inhibitors for 12 hours. Data represent mean±s.d. of three biological replicates. (B) Representative phase contrast images of CD1 mouse EpiSCs cultured in the indicated conditions for 7 days. (C) Western blot analysis of CD1 mouse EpiSCs treated with the indicated inhibitors for 12 h. (D) qRT-PCR analysis of Axin1 and Axin2 mRNA levels in CD1 mouse EpiSCs stably transfected with Axin1 shRNA or Axin2 shRNA. Data represent mean±s.d. of three biological replicates. (E) Colony assay on CD1 mouse EpiSCs stably transfected with scramble, Axin1, or Axin2 shRNAs. Cells were plated onto a 6-well plate at a density of 5,000 cells/well and cultured in CHIR/IWR-1. Colonies were counted 7 days after plating. Data represent the total combined numbers of colonies from two independent experiments in which each shRNA-transfected group was cultured in one well of a 6-well plate. (F) Representative phase contrast images of CD 1 mouse EpiSCs stably transfected with the indicated shRNAs and cultured in CHIR/IWR-1 for 7 days. (G) Western blot analysis of CD1 mouse EpiSCs overexpressing Flag-tagged Axin1 or Axin2. (H) Representative phase contrast images of CD1 mouse EpiSCs overexpressing Axin1 or Axin2 and cultured in CHIR for 7 days. Axin2-overexpressing EpiSCs could be continually passaged in CHIR alone. Scale bars, 50 μm (B, F and H)
Next, we investigated the mechanism by which CHIR/XAV promotes EpiSC self-renewal. By inhibiting GSK3 phosphorylation of β-catenin, CHIR stabilizes β-catenin, which then trans-locates to the nucleus and forms complexes with DNA-binding proteins, including TCFs, to activate transcription (Logan and Nusse, 2004). […]
as §1
(In general: In a reporter assay the amount or activity of a reporter protein is the signal.)

Test [4] has as its system Axin1. As to the kind of experiment: Western blot of Axin1 in mouse EpiSCs. The conditions noted are these: CD1 mouse EpiSCs treated 12 h. On the procedure: as §2
Next, we investigated the mechanism by which CHIR/XAV promotes EpiSC self-renewal. By inhibiting GSK3 phosphorylation of β-catenin, CHIR stabilizes β-catenin, which then trans-locates to the nucleus and forms complexes with DNA-binding proteins, including TCFs, to activate transcription (Logan and Nusse, 2004). […] Axin has two isoforms, Axin1 and Axin2. […] The expression level of Axin2, but not Axin1, was also elevated by CHIR treatment (FIG. 4C), an outcome consistent with previous findings that Axin2 is a direct downstream target of Wnt/β-catenin signaling (Jho et al., 2002). […]

In test [5] the test system is Axin2. As to the kind of experiment: Western blot of Axin2 in mouse EpiSCs. Conditions: CD1 mouse EpiSCs treated 12 h.
Test [6] deals with Axin1. Description: Western blot of Axin1 in human ESCs. Conditions: human ESCs treated 24 h. On the procedure: (A) TOPFlash™ assay in H9 human ESCs subjected to the indicated treatments for 24 h. Data represent mean±s.d. of three biological replicates. (B) Representative phase contrast and alkaline phosphatase (AP) staining images of H9 human ESCs cultured in the indicated conditions for 3 passages. (C) Phase contrast images of H9 human ESCs cultured in CHIR/XAV or CHIR/IWR-1 for 11 passages. (D) Colony forming efficiency assay of H9 human ESCs cultured in FGF2 or CHIR/IWR-1 conditions. Data represent mean±s.d. of three biological replicates. Right panel: a representative image showing AP staining of colonies formed from H9 human ESCs cultured in either FGF2 or CHIR/IWR-1 condition. (E) Human ESCs cultured in CHIR/IWR-1 for 11 passages were immunostained with the indicated antibodies. (F) Embryoid bodies (EBs) were generated from H9 human ESCs cultured in CHIR/IWR-1 for 11 passages. The outgrowths of EBs were immunostained with the indicated antibodies. (G) H&E staining of teratomas generated from H9 ESCs cultured in CHIR/IWR-1 for 20 passages. (H) Western blot analysis of Axin1 and Axin2 expression in HES3 human ESCs treated with the indicated cytokines/inhibitors for 24 h. (I) Immunofluorescence images of H9 human ESCs (passage 5 in CHIR) overexpressing Flag-tagged Axin2. […]
In general terms: A western blot detects proteins with antibodies after separation by electrophoresis.

In test [7] the test system is Axin2. As to the kind of experiment: Western blot of Axin2 in human ESCs. Conditions: human ESCs treated 24 h.
The subject of test [8] is β-catenin-TCF transcriptional activity. Description: β-catenin-TCF transcriptional activity induced by CHIR. Conditions: data not shown. From the text:
The role of β-catenin in human ESC self-renewal has been controversial. […] Our finding that activation of β-catenin can promote human ESC self-renewal or differentiation, and that the respective outcome is dictated by whether β-catenin translocates into the nucleus, provides a rational explanation for earlier, seemingly paradoxical results. […] Some of the contradicted results on the role of β-catenin in human ESC self-renewal, therefore, might be attributable to variations in the subcellular localization of β-catenin under different culture conditions.

On to 4-hydroxytamoxifen [4-OHT], for which the “differentiation of ΔNβ-catenin-ERT2-overexpressing EpiSCs” value in test [1] (1 μM 4-OHT, even in the presence of IWR-1) is reported as “resulted in rapid differentiation”.

For the compound `Cc1ccc2nc(NC(=O)CSc3nc4c(c(=O)n3-c3ccccc3)SCC4)sc2c1` [IWP-2], in test [1], the “EpiSC self-renewal / maintenance of undifferentiated state” value is given as “unable to support EpiSC self-renewal”. For the same compound, in test [2], the “effect on TOPFlash activity induced by CHIR” value is recorded as “only partially suppressed”.

As to `O=C(Nc1cccc2cccnc12)c1ccc(N2C(=O)[C@@H]3[C@H](C2=O)[C@@H]2C=C[C@H]3C2)cc1` [IWR-1, 4-(1,3,3a,4,7,7a-Hexahydro-1,3-dioxo-4,7-methano-2H-isoindol-2-yl)-N-8-quinolinyl-Benzamide], the “effect on TOPFlash activity induced by CHIR” value in test [3] is recorded as “blocked TOPFlash™ reporter activity induced by CHIR”; in test [2] it was “abolished this TOPFlash™ activity”. Further, the “amount of Axin1 protein” value in test [4] and in test [6] was “significantly increased” each time. Also, the “amount of Axin2 protein” value in test [5] and in test [7] was “significantly increased” each time.

For the compound `Cc1cc(/C=C/c2ccc3cc(N(C)C)ccc3[n+]2C)c(C)n1-c1ccccc1` [Pyrvinium], in test [1], the “EpiSC self-renewal / maintenance of undifferentiated state” value is given as “unable to support EpiSC self-renewal”.

On to “bovine serum albumin: bovine serum albumin”, for which the “effect on β-catenin-TCF transcriptional activity induced by CHIR” value in test [8] was “partially block”.

Values taken from US20130273649A1, “Culture medium for pluripotent stem cells” (UNIVERSITY OF SOUTHERN CALIFORNIA, priority 2012, published 2013).
